Test results published in US10316008B2, “KCNQ potassium channel agonist, and preparation method therefor and use thereof” (SHANGHAI INSTITUTE OF MATERIA MEDICA, CHINESE ACADEMY OF …, priority 2014, dated 2019).
Structures can show the parent of a compound that is named as a salt.

Columns and labels:
KCNQ potassium channel = experiment: Whole-cell voltage-clamp recording in CHO-K1 cells transfected with KCNQ plasmid; assay type: cell-based; settings: for I/I0: current enhancement factor, −10 mV testing voltage, compound concentration 10 μM, >1 activating, <1 inhibiting; for ΔV1/2: shift of V1/2, negative sign = left-ward shift of current activation curve, compound 10 μM, CHO-K1 cells
Protocol: The culture medium for Chinese hamster oocytes (CHO-K1) (Culture Collection of Chinese Academy of Sciences): 50/50 DMEM/F-12 (Cellgro, Manassas, Va.), added with 10% fetal bovine serum (FBS) (Gibco, Australia) and 2 mM L-glutamic acid (Invitrogen). […] Lipofectamine 2000™ agent (Invitrogen) was used for Transfection according to the protocol thereof. GFP (green fluorescent protein) was cotransfected to be used as a indication of successful converting into KCNQ plasmid.
Whole-cell voltage-clamp recording was performed on an Axopatch-200B amplifier (Molecular Devices, Sunnyvale, Calif.) at room temperature. The electrode was made by drawing borosilicate glass capillary (World Precision Instruments, Sarasota, Fla.). The electric resistance of the electrode filled with an intracellular fluid is 3 to 5 MΩ. […] During the recording, an extracellular fluid was continuously perfused by using a BPS perfusion system (ALA Scientific Instruments, Westburg, N.Y.). The composition of the extracellular fluid (1 L) was as follows: 140 mM NaCl(Sigma), 5 mM KCl(Sigma), 2 mM CaCl2(Sigma), 1.5 mM MgCl2(Sigma), 10 mM HEPES(Sigma) and 10 mM glucose(Sigma) (pH was adjusted to 7.4 with NaOH). […] Series resistors compensate 60 to 80%. Up to date, multivoltage scheme was generally adopted, wherein the clamp voltage was set at −80 mV, stimulating voltage was a gradient voltage from −90 mV to 60 mV with interval of 10 mV, and the stimulating time for each voltage was 2000 ms.
V1/2 is the voltage at which 50% of cells were activated, ΔV1/2 is the shift amount of V1/2, negative sign (−) represents a left-ward shift of the current activation curve. I/I0 represents the current enhancement factor, wherein, I0 is the maximum induced current produced under stimulation of −10 mV testing voltage after administrating cells with blank extracellular fluid, I is the maximum induced current produced under stimulation of −10 mV testing voltage after administrating the drug (the compound concentration was 10 μM), I/I0>1 represents activating activity, and I/I0<1 represents inhibiting activity. N is the number of tested cells. NT represents non-tested.

[1] = test system: convulsive mice induce by MES; experiment: MES (maximum electroshock) induced convulsion model, oral perfusion; assay type: in vivo, KM mice; settings: Mus musculus, 0.5 h; mice, oral perfusion, MES 30 mins after administration; read-out: ED50 (50% effective dose)
Source text: YLS-9A model physiological pharmaceutical electronic stimulator was used in the experiment to induce convulsion of mice, and specific parameters were set as follows: configuration 8, stimulating voltage: 160V, period of stimulation: 5.4 sec. Healthy KM mice (SPF level, male, body weight: 18 to 22 g) were selected for the experiment. After the ear tip of the mice was sufficiently wetted with physiological saline, the mice was electrically stimulated once with ear clip electrode, and tonic hind-limb seizure was deemed as indication of convulsion. The mice were screened one day before the experiment to weed out the dead mice and the ones without generalized tonic seizure. The qualified mice were caged randomly with access to water at liberty. Before the experiment started, the mice were fasted for 8 h.
The compounds to be tested were freshly formulated on the day of experiment. RTG hydrochloride was dissolved with ultrapure water to obtain a solution with desired concentration. K41.HCl and K43.HCl were formulated with 5% DMSO+95% of 1% Tween80, that is, a proper amount of the compound to be tested was weighted and, first, sufficiently dissolved in 5% DMSO, and then added with a desire volume of 1% Tween80 to be sufficiently suspended to form a suspension with a certain drug concentration. The mice screened one day before were randomly grouped with each group having 10 mice, marked, weighted and then administered with the compound to be tested or solvent (5% DMSO+95% (1% Tween 80)) by oral perfusion with administered volume of 0.2 ml/10 g. The dose range for each compound was 1 to 56 mg/kg for RTG, 1 to 40 mg/kg for K41.HCl, and 0.5 to 4 mg/kg for K43.HCl. 30 mins after administration, MES experiment was performed and the experimental parameters were the same as the above. The number of mice with generalized tonic-clonic convulsion in each group was recorded, the protection rate of each of the compounds to be tested on convulsive mice induce by MES was calculated and dose-response curve for each compound was plotted. The dose-response curve for each compound was obtained according to the analysis of Graphpad Prism 5 software, as shown in FIG. 3.

[2] = Rotarod experiment, motor coordination ability (acute neurotoxicity); assay type: in vivo, KM mice; settings: both sexes, KM, mouse, in vivo; mice, oral perfusion, Rotarod 30 mins after administration; read-out: TD50 (50% acute neurotoxicity dose)
Protocol: (§1) YLS-4C Rotarod system was used in the experiment, wherein the diameter of the rod was 3 cm and the rotate speed was set at 6 rpm. Healthy KM mice (SPF level) were selected, wherein male and female were equal, the body weight was 18 to 22 g. One day before experiment, the mice were place on the rotarod for training and screening. The tail tip of mice was held to make them creep on the rotarod during the training. […] The mice that jumped on the rotarod or griped the rotarod were weed out. In addition, three time periods were set with 1 min for each. […] The qualified mice were randomly caged according to the gender, and allowed to eat and drink freely.
(§2) On the day of the experiment, each compound to be tested was freshly formulated by the same method as described in MES experiment. If the compound was not sufficiently suspended, the suspension was further mixed by ultrasonication for 20 min so as to make the compound sufficiently suspended. […] 30 mins after administration, Rotarod experiment was performed and the experiment parameters were the same as the above. The number of mice that fell off from the rorarod was recorded, and the influence of each compound on motor coordination ability of mice was analyzed. The curve for dose of each compound verse motor deficit (percentage) of mice for each compound was obtained according to the analysis of Graphpad Prism 5 software and was shown in FIG. 4.

[3] = test system: motor coordination ability of mice; experiment: as above; assay type: in vivo, KM mice; settings: TD50 Rotarod / ED50 MES
Protocol: as §1, §2

[4] = Stability of solution exposed to air; settings: solution exposed to air (aqueous solution for RTG hydrochloride)
[5] = target: T1, KCNQ2 homotetramer channel (Homo sapiens, UniProt O43526); experiment: KCNQ2 channel dose-response curve in CHO-K1 cells transfected with KCNQ2 plasmid; assay type: cell-based
T1 construct: expressed in transfected cells; host or cells: CHO-K1
Protocol: The culture medium for Chinese hamster oocytes (CHO-K1) (Culture Collection of Chinese Academy of Sciences): 50/50 DMEM/F-12 (Cellgro, Manassas, Va.), added with 10% fetal bovine serum (FBS) (Gibco, Australia) and 2 mM L-glutamic acid (Invitrogen). Expression of KCNQ channels: 24 h before transfection, CHO-K1 spreaded on a dish with a diameter of 60 mm. Lipofectamine 2000™ agent (Invitrogen) was used for Transfection according to the protocol thereof. GFP (green fluorescent protein) was cotransfected to be used as a indication of successful converting into KCNQ plasmid.
Whole-cell voltage-clamp recording was performed on an Axopatch-200B amplifier (Molecular Devices, Sunnyvale, Calif.) at room temperature. The electrode was made by drawing borosilicate glass capillary (World Precision Instruments, Sarasota, Fla.). The electric resistance of the electrode filled with an intracellular fluid is 3 to 5 MΩ. The composition of the intracellular fluid (1 L) was as follows: 145 mM KCl(Sigma), 1 mM MgCl2(Sigma), 5 mM EGTA(Sigma), 10 mM HEPES(Sigma) and 5 mM MgATP(Sigma) (pH was adjusted to 7.3 with KOH). During the recording, an extracellular fluid was continuously perfused by using a BPS perfusion system (ALA Scientific Instruments, Westburg, N.Y.). The composition of the extracellular fluid (1 L) was as follows: 140 mM NaCl(Sigma), 5 mM KCl(Sigma), 2 mM CaCl2(Sigma), 1.5 mM MgCl2(Sigma), 10 mM HEPES(Sigma) and 10 mM glucose(Sigma) (pH was adjusted to 7.4 with NaOH). Electric signal was filtered at 1 kHz and further converted into digital signal by using pClamp 9.2 software (Molecular Devices, Sunnyvale, Calif.) in DigiData 1322A. Series resistors compensate 60 to 80%. Up to date, multivoltage scheme was generally adopted, wherein the clamp voltage was set at −80 mV, stimulating voltage was a gradient voltage from −90 mV to 60 mV with interval of 10 mV, and the stimulating time for each voltage was 2000 ms.
The experimental procedure was the same as that in Electrophysiological Example 1. […]

[6] = data from FDA Pharmacology Review(s), Potiga tablets; cited from earlier work

T1 sequence (O43526 whole entry): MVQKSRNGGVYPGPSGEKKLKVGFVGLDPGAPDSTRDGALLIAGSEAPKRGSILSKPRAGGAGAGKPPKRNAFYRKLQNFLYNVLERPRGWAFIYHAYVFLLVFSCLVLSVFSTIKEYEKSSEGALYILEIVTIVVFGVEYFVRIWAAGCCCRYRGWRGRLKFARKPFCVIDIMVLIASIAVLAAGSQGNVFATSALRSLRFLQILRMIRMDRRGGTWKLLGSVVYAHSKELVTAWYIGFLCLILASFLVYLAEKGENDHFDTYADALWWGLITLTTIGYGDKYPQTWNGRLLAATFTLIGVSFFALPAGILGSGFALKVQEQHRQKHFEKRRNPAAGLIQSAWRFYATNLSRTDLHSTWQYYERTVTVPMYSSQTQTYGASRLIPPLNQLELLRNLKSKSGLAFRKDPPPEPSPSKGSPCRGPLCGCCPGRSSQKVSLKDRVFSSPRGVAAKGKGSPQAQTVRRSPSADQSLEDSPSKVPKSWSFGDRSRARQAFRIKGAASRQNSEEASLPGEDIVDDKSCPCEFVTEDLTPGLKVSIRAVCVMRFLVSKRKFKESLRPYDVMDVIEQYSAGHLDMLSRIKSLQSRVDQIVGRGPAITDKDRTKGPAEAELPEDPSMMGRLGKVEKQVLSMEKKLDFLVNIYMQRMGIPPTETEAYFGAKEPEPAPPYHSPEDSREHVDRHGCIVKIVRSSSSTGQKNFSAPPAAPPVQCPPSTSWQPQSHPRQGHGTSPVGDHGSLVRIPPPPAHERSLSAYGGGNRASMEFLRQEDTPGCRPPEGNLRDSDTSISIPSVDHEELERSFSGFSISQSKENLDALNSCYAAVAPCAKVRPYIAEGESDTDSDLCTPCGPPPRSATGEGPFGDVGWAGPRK

Compound: C#CCN(Cc1ccc(F)cc1)c1ccc(NC(=O)OC)c(OC(F)(F)F)c1 [K48•HCl]
- I/I0 (KCNQ potassium channel): 1.24 ± 0.16
- ΔV1/2 (KCNQ potassium channel): −13.2 ± 1.5 mV

Compound: C#CCN(Cc1ccc(F)cc1)c1ccc(NC(=O)CNC(C)=O)cc1 [K56•HCl]
- I/I0 (KCNQ potassium channel): 1.10 ± 0.10
- ΔV1/2 (KCNQ potassium channel): −2.0 ± 1.3 mV

Compound: C#CCN(Cc1ccc(F)cc1)c1ccc(NC(=O)OC)c(OC)c1 [K46•HCl]
- I/I0 (KCNQ potassium channel): 1.52 ± 0.55
- ΔV1/2 (KCNQ potassium channel): −6.5 ± 2.1 mV

Compound: C#CCN(Cc1ccc(F)cc1)c1ccc(NC(=O)OC)c(C#N)c1 [K42•HCl]
- I/I0 (KCNQ potassium channel): 0.52 ± 0.01
- ΔV1/2 (KCNQ potassium channel): −5.2 ± 0.7 mV

Compound: C#CCN(Cc1ccc(F)cc1)c1ccc(NC(=O)C2CCCO2)cc1 (stereo not shown) [K54•HCl]
- I/I0 (KCNQ potassium channel): 7.55 ± 1.92
- ΔV1/2 (KCNQ potassium channel): −30.9 ± 4.1 mV

Compound: C#CCN(Cc1ccc(F)cc1)c1ccc(NC(=O)COC)cc1 [K52•HCl, N-[4-(N-p-fluorobenzyl-N-propargyl-amino)-phenyl]-2-methoxyacetamide]
- I/I0 (KCNQ potassium channel): 5.80 ± 0.52
- ΔV1/2 (KCNQ potassium channel): −10.93 ± 1.86 mV

Compound: C#CCN(Cc1ccc(F)cc1)c1ccc(NC(=O)N(C)OC)cc1 [K51•HCl]
- I/I0 (KCNQ potassium channel): 1.61 ± 0.08
- ΔV1/2 (KCNQ potassium channel): −8.89 ± 1.12 mV

Compound: methyl 4-(N-parafluorobenzyl-N-3-cyclopropyl propargyl-amino) phenylaminothioformate [K59•HCl]
- I/I0 (KCNQ potassium channel): 1.01 ± 0.13
- ΔV1/2 (KCNQ potassium channel): −0.14 ± 2.33 mV

Compound: [2H]C([2H])(C#C)N(Cc1ccc(F)cc1)c1ccc(NC(=S)OC)cc1 [K47•HCl, methyl 4-(N-parafluorobenzyl-N-3,3-dideuteriumpropargyl-amino)phenylaminothioformate]
- I/I0 (KCNQ potassium channel): 2.10 ± 0.08
- ΔV1/2 (KCNQ potassium channel): −18.10 ± 0.03 mV

Compound: CCOC(=O)Nc1ccc(NCc2ccc(F)cc2)cc1N [RTG, retigabine, reference compound]
- ED50 [1]: 21.8 mg/kg
- TD50 at 30 min [2]: 74.2 mg/kg
- P.I (Protective index)=TD50/ED50 [3]: 3.40
- stability of solution exposed to air [4]: quickly become blue and insoluble precipitate is formed
- EC50 [5]: 1.32 µM
- reported lethal dose [6]: 100 mg/kg

Compound: C#CCN(Cc1ccc(F)cc1)c1ccc(NC(=O)CN(C)C)cc1 [K55•HCl]
- I/I0 (KCNQ potassium channel): 1.72 ± 0.14
- ΔV1/2 (KCNQ potassium channel): −10.76 ± 4.51 mV

Compound: C#CCN(Cc1ccc(F)cc1)c1ccc(NC(=O)C2CCC(F)(F)CC2)cc1 [K58•HCl]
- I/I0 (KCNQ potassium channel): 1.78 ± 0.19
- ΔV1/2 (KCNQ potassium channel): −33.68 ± 1.05 mV

Compound: C#CCN(Cc1ccc(F)cc1)c1ccc(NC(=O)COCC)cc1 [K53•HCl]
- I/I0 (KCNQ potassium channel): 7.31 ± 1.09
- ΔV1/2 (KCNQ potassium channel): −14.81 ± 0.92 mV

Compound: C#CCN(Cc1ccc(F)cc1)c1ccc(NC(=S)OC)cc1 [K49•HCl, methyl 4-(N-parafluorobenzyl-N-propargyl-amino) phenylaminothioformate]
- I/I0 (KCNQ potassium channel): 4.4 ± 1.6
- ΔV1/2 (KCNQ potassium channel): −22 ± 2.5 mV

Compound: C#CCN(Cc1ccc(F)cc1)c1ccc(NC(=O)CC(=O)OC)cc1 [K57•HCl]
- I/I0 (KCNQ potassium channel): 8.13 ± 2.57
- ΔV1/2 (KCNQ potassium channel): −31.55 ± 0.86 mV

Compound: C#CCN(Cc1ccc(F)cc1)c1ccc(NC(=O)OC)cc1OC [K45•HCl]
- I/I0 (KCNQ potassium channel): 0.57 ± 0.01
- ΔV1/2 (KCNQ potassium channel): −5.1 ± 0.9 mV

Compound: C#CCN(Cc1ccc(F)cc1)c1ccc(NC(=O)OC)cc1C [K40•HCl]
- I/I0 (KCNQ potassium channel): 1.40 ± 0.04
- ΔV1/2 (KCNQ potassium channel): −3.42 ± 1.54 mV

Compound: C#CCN(Cc1ccc(F)cc1)c1c(C)cc(NC(=O)OC)cc1C [K44•HCl]
- I/I0 (KCNQ potassium channel): 0.72 ± 0.05
- ΔV1/2 (KCNQ potassium channel): 13.47 ± 2.13 mV
